Values of other authors in patent US9314447B2 (Lupin Atlantis Holdings, S.A., priority 2012, dated 2016).

Conditions: in vivo

With `CC(C)(Oc1ccc(C(=O)c2ccc(Cl)cc2)cc1)C(=O)O` [Fenofibric acid] as the molecule, how does the elimination half-life read?
The elimination half-life was “about 20 hours”.
